# Measurements reported in patent US20110093959A1, “CRYPTOTIS PARVA SCREENING MODEL FOR ANTIEMETIC POTENTIAL” (priority 2008, published 2011).
# “And” between values parts separate entries of the source, which are not always exact repeats. Identical values can stand only once.
# Columns and labels:
# Format in all cases: in vivo, Cryptotis parva
# [1] = test system: Least Shrew; assay: CIS dose-response emesis, abdominal contractions and feeding, 47-hour observation; settings: for total frequency of emesis vs vehicle control: immediate and delayed phases
# From the text: During the dark night phase a red light bulb was used to illuminate the shrew cage.
# To habituate the shrews to the test environment, each animal was randomly selected and transferred to a 14×17×12 cm clean opaque plastic cage and was offered ten mealworms 1 hr prior to experimentation. […] Immediately following injection, each shrew was returned to its cage and their behaviors were videotaped for the next 47 hr. Animals were allowed ad libitum access to food (mealworms) and water. Food supply was maintained by making sure that two meal worms were always available in the cage throughout the observation time. Water was available throughout the experiment via small plastic container (1 cm in diameter and 0.5 cm in height) glued to the floor of each cage. The mean frequencies (±SEM) of vomitings (wet, dry and total) and abdominal contractions per hour and the number of mealworms eaten per hour, were scored separately from videotape recordings for each individual shrew for the entire observation period by a trained observer blind to the experimental conditions.
# (§1) When a significant dose and exposure interaction was found, then simple effects at a particular emesis phase was tested via a one-way ANOVA. Neurochemical data were initially analyzed by two-way analysis of variance (ANOVA) with drug dose (0 mg/kg and 10 mg/kg) and exposure time (2 hr and 33 hr) as factors. […] For each statistical test, a P value of<0.05 was necessary to achieve statistical significance.
# [2] = test system: substance P tissue levels; assay: Substance P tissue levels after CIS (EIA)
# Procedure: These parameters were used in our neurochemical studies. Prior to experimentation, shrews were habituated to the laboratory environment as described for the behavioral studies. […] Subgroups of each treatment were sacrificed by rapid decapitation at either 2 hr or 33 hr post-injection.
# Preliminary sample preparation procedures were carried out to optimize detection conditions in accord with our published methods (Darmani et al., 2008). […] As proteases can be also deactivated by heat, at basic pH and in the presence of EDTA (Darmani et al., 2008), the entire intestine was immediately immersed in a 70° C. preheated for 5 min, 5 ml solution of normal saline containing […] EDTA at pH 8.0 in accordance to published methods (Darmani et al., 2008). Each sample was allowed to cool down naturally to room temperature and then each gut was thrice flushed and rinsed with 5 ml of the cited saline solution. Then, each gut was dissected and the duodenum and jejunum samples were placed separately in test tubes containing 1 ml assay buffer. The dissected frontal cortex and brainstem samples were placed in different test tubes containing 0.5 ml assay buffer. Each sample was homogenized using a tissue tearer (Biospec) set at level 5 for 15 sec. The homogenates were then centrifuged at 17,000×g for 15 min at 4° C. The supernatants were obtained and saved at […] until used for the EIA detection of SP. Samples were analyzed for SP using the “Correlate-EIA” kit from Assay Designs using a microplate reader.
# as §1
# [3] = test system: Fos; assay: Fos expression in the dorsal vagal complex resulting from CIS-induced vomiting; settings: CIS 10 mg/kg i.p.; vs vehicle in place of CIS
# Procedure: After the appropriate time period for acute or delayed phase vomiting, shrews were anesthetized with a lethal dose of pentobarbital (100 mg/kg) and perfused transcardially via blunted needle with a peristaltic pump. The shrew was perfused with ice cold 4% paraformaldehyde and 5% picric acid in pH 7.4, 0.1 M phosphate buffer (10 min). Brains were removed and stored in 30% sucrose in 0.1 M PB overnight, then embedded in blocks of 12% gelatin in 30% sucrose/PB. The blocks were postfixed for 3 hr in 2% paraformaldehyde/PB, then rinsed and immersed in 30% sucrose/PB until they sank (usually 1-2 hr). The brain block was cut sagittally on a freezing benchtop microtome (Leica) at 30 μm into 5 series, and stored in PB with 0.03% sodium azide.
# Immunolabeling was accomplished by blocking a free-floating series with 10% normal horse serum (NHS) and 3% hydrogen peroxide in PB with 0.3% Tri-ton X-100 (TX) for 30 min. After rinsing in PB, tissue was put in sheep anti-Fos polyclonal antibody (Chemicon/Millipore, Temecula, Calif.; 1:600), with 5% NHS and 0.3% TX in PB, and incubated for about 42 hr at room temperature (RT) with gentle shaking. After rinsing in PB, the tissue was placed in biotinylated donkey anti-sheep IgG secondary antibody (Jackson Immunoresearch, West Grove, Pa.; 1:600) diluted in the same diluent described for the primary antibody, and the tissue incubated at RT with shaking for 75 min Tissue was then rinsed and incubated for 60 min in HRP-conjugated avidin-biotin complex (Vector Labs, Burlingame, Calif.; Vectastain kit diluted 1:2) in PB. Tissue was then rinsed twice in PB, then once in imidazole-acetate buffer (0.1 M, pH 7.4), then reacted for 6 min in 0.0006% hydrogen peroxide with 2% nickel ammonium sulfate-enhanced diaminobenzidine (DAB, 0.05% in 0.1 M imidazole-acetate buffer). All reagents for DAB processing were purchased from Sigma-Aldrich. […]
# [4] = CIS 10 mg/kg, i.p., post exposure
# [5] = CIS 10 mg/kg, 2 hour (immediate phase)
# [6] = CIS 10 mg/kg, 33 hour (delayed phase)
smiles,measurement,setting,value
"N.N.[Cl][Pt][Cl] [CIS, cis-platinum(II)diamine dichloride]",peak immediate phase of emesis,"[1]; CIS 5 mg/kg, i.p.",third hour
same,mealworms eaten vs control,"[1]; CIS 5 mg/kg, first night",ate significantly more
same,"time of maximal mean frequency of emesis, delayed phase",[1]; [4],33 h
same,"time of maximal mean frequency of emesis, immediate phase",[1]; [4],2 h and 2 to 3 h
same,mealworms eaten vs control,"[1]; CIS 10 mg/kg, day 1",ate significantly more
same,mealworms eaten vs control,"[1]; CIS 10 mg/kg, day 2",ate significantly less
same,frequency of abdominal contractions vs vehicle,"[1]; CIS 10 mg/kg, delayed phase",greater frequencies
same,frequency of dry emesis vs vehicle control,"[1]; CIS 10 mg/kg, delayed phase",greater frequencies
same,total frequency of emesis vs vehicle control,[1]; CIS 10 mg/kg,significantly different
same,frequency of wet emesis vs control,"[1]; CIS 10 mg/kg, immediate phase",significantly greater frequencies
same,time from which animals expired,"[1]; CIS 20 mg/kg, i.p., post-CIS exposure",≥ 30 h
same,mealworms eaten vs control,"[1]; CIS 20 mg/kg, day 1",ate less
same,mealworms eaten vs control,"[1]; CIS 20 mg/kg, day 2",ate significantly less
same,frequency of abdominal contractions vs vehicle,"[1]; CIS 20 mg/kg, delayed phase",greater frequencies
same,mealworms eaten vs control,"[1]; CIS 20 mg/kg, first night",ate significantly less
same,total frequency of emesis vs vehicle control,[1]; CIS 20 mg/kg,significantly different
same,frequency of dry vomiting vs vehicle control,"[1]; CIS 20 mg/kg, immediate phase",significantly greater frequencies
same,frequency of wet emesis vs control,"[1]; CIS 20 mg/kg, immediate phase",significantly greater frequencies
same,mean frequency of abdominal contractions vs vehicle,"[1]; CIS 20 mg/kg, immediate phase",significantly greater
same,"wet vomiting, dose effect","[1]; CIS 5-20 mg/kg, delayed phase",no significant dose effect
same,duodenal SP tissue levels,"[2]; CIS 10 mg/kg, 2 and 33 hour",failed to exhibit a significant effect
same,frontal cortex SP tissue levels vs vehicle,"[2]; CIS 10 mg/kg, 2 hour",no significant difference
same,increase in brainstem SP levels vs vehicle,[2]; [5],1396%
same,increase in jejunal SP levels vs vehicle,[2]; [5],333%
same,decrease in frontal cortex SP levels vs vehicle,"[2]; CIS 10 mg/kg, 33 hour",39.2%
same,increase in brainstem SP levels vs vehicle,[2]; [6],956%
same,increase in jejunal SP levels vs vehicle,[2]; [6],226.5%
same,brainstem mean SP level lower at 33 hour than at 2 hour,[2]; CIS groups,100%
same,Fos-IR in the DVC after CIS-induced vomiting,[3],numerous Fos-IR nuclei
